Measurements as given in patent US9909107B2, “Brassica AHAS genes and gene alleles that provide resistance to imidazolinone herbicides” (priority 2004, dated 2018).
Several values for one entry are separate records, joined by “and”; a condition that tells them apart may be missing. Identical values can stand only once.

Assays:
[1] = test system: AHAS enzyme in leaf discs of Susceptible check (B. juncea variety 'Arid'); test: AHAS activity assay of leaf discs, susceptible check; format: biochemical, Brassica juncea
Method: (§1) Leaf discs were removed from seedling leaves of J04E-0044 and subjected to an assay of AHAS activity, as described by Singh et al. (Anal. Biochem. 171: 173-179, 1988). The assay measures AHAS activity by estimating the amount of product, acetolactate, after conversion by decarboxylation in the presence of acid to acetoin. The assay compares the AHAS activity in two leaf discs. The control leaf disc was incubated in 10 mM phosphate buffer (pH 6.0) containing 50 mM pyruvate, 500 uM cyclopropane dicarboxylic acid (CPCA), 10% M&S salts and 0.5% alanine. The other leaf disc was in the same buffer in the presence of 2.5 uM imazamox, an imidazolinone herbicide. The herbicide normally binds to the AHAS enzyme and inhibits activity. The incubations were carried out at 22° C. for 16 hrs followed by measuring the absorbance at A530 nm. A completely herbicide susceptible plant will have an AHAS activity level near zero when exposed to an inhibitory herbicide, while a tolerant plant will have AHAS activity nearly equal to that of the control. A plant with a mutated AHAS gene in one genome but not the other will have intermediate AHAS activity in the present of enzyme inhibitor. The procedure was modified to include the addition of cydopropane dicarboxylic acid (CPCA), which prevents the further conversion of acetolactate to valine and leucine. In addition to an imidazolinone herbicide as an inhibitor, a sulfonylurea herbicide (chlorsulfuron) was also used on separate leaf discs to test for cross-tolerance in the same way except that 0.2 uM chlorsulfuron was used instead of 2.5 uM imazamox. In this table, the line PM1 is a B. napus variety with a mutation affecting the AHAS1 gene in the C genome only and PM2 is a B. napus variety with a mutation in the AHAS3 gene, located in the A genome. Susceptible check is a commercial B. juncea variety.

[2] = test system: AHAS enzyme in leaf discs of J04E-0044 (BjAHAS-bR mutant allele); test: AHAS activity assay of leaf discs, line J04E-0044; format: biochemical, Brassica juncea; conditions: for tolerance provided by the mutation (in words): mutation in B. juncea variety J04E-0044
Method: as §1

[3] = target: T1, AHAS enzyme in leaf discs of PM2 (mutation in the AHAS3 gene, A genome) (Brassica napus, UniProt P27819, W556L); test: AHAS activity assay of leaf discs, line PM2; format: biochemical; conditions: for tolerance provided by the mutation (in words): PM2 mutation in the A genome
T1 construct: Relative AHAS activity of leaf discs exposed; from tissue; host or cells: leaf discs of B. napus line PM2
Method: as §1

[4] = target: T2, AHAS enzyme in leaf discs of PM1 (mutation affecting the AHAS1 gene in the C genome) (Brassica napus, UniProt P27818, S638N); test: AHAS activity assay of leaf discs, line PM1; format: biochemical; conditions: for tolerance provided by the mutation (in words): PM1 mutation
T2 construct: Relative AHAS activity of leaf discs exposed; from tissue; host or cells: leaf discs of B. napus line PM1
Method: as §1

T2 sequence (P27818 83-655 S638N): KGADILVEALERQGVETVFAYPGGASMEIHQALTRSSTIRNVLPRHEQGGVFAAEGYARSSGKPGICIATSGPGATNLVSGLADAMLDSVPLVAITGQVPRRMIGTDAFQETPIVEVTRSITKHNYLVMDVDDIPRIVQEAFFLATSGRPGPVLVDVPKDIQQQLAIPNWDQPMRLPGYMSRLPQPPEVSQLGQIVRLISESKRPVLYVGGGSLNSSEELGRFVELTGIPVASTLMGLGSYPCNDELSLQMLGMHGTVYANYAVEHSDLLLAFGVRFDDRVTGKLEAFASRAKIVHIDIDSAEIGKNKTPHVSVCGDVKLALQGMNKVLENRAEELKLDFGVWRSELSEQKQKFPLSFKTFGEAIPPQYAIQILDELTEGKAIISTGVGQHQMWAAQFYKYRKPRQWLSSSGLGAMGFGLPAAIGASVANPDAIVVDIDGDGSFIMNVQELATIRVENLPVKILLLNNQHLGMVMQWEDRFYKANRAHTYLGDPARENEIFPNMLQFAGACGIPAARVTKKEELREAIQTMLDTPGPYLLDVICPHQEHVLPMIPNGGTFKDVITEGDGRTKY
T1 sequence (P27819 70-652 W556L): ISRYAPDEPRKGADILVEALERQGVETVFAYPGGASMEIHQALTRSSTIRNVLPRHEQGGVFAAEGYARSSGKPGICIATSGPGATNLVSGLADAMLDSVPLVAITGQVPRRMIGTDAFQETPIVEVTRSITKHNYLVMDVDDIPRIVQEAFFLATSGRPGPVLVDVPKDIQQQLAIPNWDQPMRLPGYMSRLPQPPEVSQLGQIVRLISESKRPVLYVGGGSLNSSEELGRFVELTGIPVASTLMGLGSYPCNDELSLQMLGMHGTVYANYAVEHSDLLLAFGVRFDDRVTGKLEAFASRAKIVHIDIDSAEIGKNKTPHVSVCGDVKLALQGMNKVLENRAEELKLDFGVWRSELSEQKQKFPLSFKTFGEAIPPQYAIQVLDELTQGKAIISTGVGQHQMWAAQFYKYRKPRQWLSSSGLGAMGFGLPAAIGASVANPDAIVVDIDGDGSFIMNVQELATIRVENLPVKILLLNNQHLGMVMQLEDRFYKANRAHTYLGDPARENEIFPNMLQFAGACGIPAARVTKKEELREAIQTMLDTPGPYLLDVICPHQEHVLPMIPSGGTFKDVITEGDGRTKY

Row | SMILES | Relative AHAS activity with chlorsulfuron (0-1) ([1]; Susceptible check leaf disc, 0.2 uM chlorsulfuron vs control disc, 22° C., 16 hrs, scale 0-1) | tolerance provided by the mutation (in words) [2] | tolerance provided by the mutation (in words) [3] | tolerance provided by the mutation (in words) [4] | AHAS activity in the presence of an imidazolinone herbicide relative to without the inhibitor ([1]; Arid (susceptible check)) | Relative AHAS activity with imidazolinone (0-1) ([1]; Susceptible check leaf disc, 2.5 uM imazamox vs control disc, 22° C., 16 hrs, scale 0-1) | relative AHAS activity ([2]; J04E-0044, imidazolinone as AHAS activity inhibitor (Table 1)) | Relative AHAS activity with imidazolinone (0-1) ([2]; J04E-0044 leaf disc, 2.5 uM imazamox vs control disc, 22° C., 16 hrs, scale 0-1, assays #1-3) | Relative AHAS activity with imidazolinone (0-1) ([3]; PM2 leaf disc, 2.5 uM imazamox vs control disc, 22° C., 16 hrs, scale 0-1, assays #1-2) | Relative AHAS activity with imidazolinone (0-1) ([4]; PM1 leaf disc, 2.5 uM imazamox vs control disc, 22° C., 16 hrs, scale 0-1, assays #1-3)
1 | COc1nc(C)nc(NC(=O)NS(=O)(=O)c2ccccc2Cl)n1 [chlorsulfuron] | 0.029 | little tolerance | tolerance | no tolerance | – | – | – | – | – | –
2 | COCc1cnc(C2=NC(C)(C(C)C)C(=O)N2)c(C(=O)O)c1 (stereo not shown) [imidazolinone, imazamox] | – | tolerance equal to that of PM2 | tolerance | less tolerance | less than 2% | 0.018 | 70% and 79% and 91% | 0.703 and 0.793 and 0.919 | 0.607 and 0.722 | 0.256 and 0.292 and 0.276
